In one test the target is human CXCR3A (Homo sapiens (Human), UniProt P49682). Kind of test: FLIPR assay. It counts as cell-based. To be noted: CHO-K1 cells expressing the human CXCR3A coupled to Galpha(16); CXCL10 agonist 20 nM; Fluo-4-AM fluorescence; mean values if determined several times. Summed up:
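CHO-K1 cells expressing CXCR3A coupled to Gα16 were loaded with Fluo-4-AM for 1 h in Hepes-buffered HBSS, pH 7.4, with 5 mM probenecid. Compound dilutions were added on the FLIPR, followed by CXCL10 (added as a 20 nM solution). Baseline-subtracted peak fluorescence was fitted to a single-site curve for IC50.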

Another test has as its target CXCR3 (Homo sapiens (Human), UniProt P49682). Kind of test: Receptor internalization assay. It counts as cell-based. The conditions noted are these: human whole blood; final CXCL10 concentration 9 nM; 30 min 37° C.; CXCR3 cell surface expression on CD3 positive cells, flow cytometer; read-out: Internalization IC50. Summed up:
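In human whole blood, compounds were incubated with CXCL10 (9 nM final) for 30 min at 37 °C to drive receptor internalization, then stained with anti-CXCR3/CD3 antibodies and lysed of red cells. Flow cytometry measured mean surface CXCR3 fluorescence on CD3+ cells, and IC50 came from single-site dose-response fits.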

Data on 23 molecules can be found in patent US9266876B2 (Actelion Pharmaceuticals Ltd., priority 2012, dated 2016).

pIC50: −log10 of the molar value.

human CXCR3A, sequence (P49682 whole entry): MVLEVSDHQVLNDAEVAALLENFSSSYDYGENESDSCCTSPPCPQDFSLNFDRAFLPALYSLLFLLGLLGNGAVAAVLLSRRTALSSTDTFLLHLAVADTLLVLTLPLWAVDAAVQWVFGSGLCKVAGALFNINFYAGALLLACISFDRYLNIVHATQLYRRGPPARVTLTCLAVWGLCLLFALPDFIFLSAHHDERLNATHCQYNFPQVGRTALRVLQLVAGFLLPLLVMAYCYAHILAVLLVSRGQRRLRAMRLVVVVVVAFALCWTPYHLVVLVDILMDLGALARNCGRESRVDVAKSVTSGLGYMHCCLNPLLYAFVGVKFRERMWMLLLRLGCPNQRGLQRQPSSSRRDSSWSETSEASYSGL
CXCR3, sequence (P49682 whole entry): as above

As for `C[C@@H]1CN(c2scnc2-c2nc3ccccc3[nH]2)CCN1C(=O)Cc1ccccc1-n1nccn1` [Example 186, 1-{(R)-4-[4-(1H-Benzoimidazol-2-yl)-thiazol-5-yl]-2-methyl-piperazin-1-yl}-2-(2-[1,2,3]triazol-2-yl-phenyl)-ethanone], the values for the pIC50 on human CXCR3A and at CXCR3 were 8.40 and 5.79, respectively.

In the case of `C[C@@H]1CN(c2scnc2-c2nc3ccccc3[nH]2)CCN1C(=O)CN1C(=O)C(F)(F)c2ccccc21` [Example 187, 1-(2-{(R)-4-[4-(1H-Benzoimidazol-2-yl)-thiazol-5-yl]-2-methyl-piperazin-1-yl}-2-oxo-ethyl)-3,3-difluoro-1,3-dihydro-indol-2-one], the pIC50 on human CXCR3A is 9.52; at CXCR3 it was 5.95.

For the molecule `C[C@@H]1CN(c2scnc2-c2nc3ccccc3[nH]2)CCN1C(=O)Cn1cc(-c2ccccc2)nn1` [Example 188, 1-{(R)-4-[4-(1H-Benzoimidazol-2-yl)-thiazol-5-yl]-2-methyl-piperazin-1-yl}-2-(4-phenyl-[1,2,3]triazol-1-yl)-ethanone], the pIC50 at human CXCR3A is 8.40; on CXCR3, 5.42.

As for `C[C@@H]1CN(c2sc(C(F)(F)F)nc2-c2nc3ccccc3[nH]2)CCN1C(=O)Cn1cc(-c2ccccc2)nn1` [Example 189, 1-{(R)-4-[4-(1H-Benzoimidazol-2-yl)-2-trifluoromethyl-thiazol-5-yl]-2-methyl-piperazin-1-yl}-2-(4-phenyl-[1,2,3]triazol-1-yl)-ethanone], the negative-log IC50 (pIC50) on human CXCR3A is 8.70; at CXCR3 it was 5.75.

Turning to `C[C@@H]1CN(c2sc(C(F)(F)F)nc2-c2nc3ccccc3[nH]2)CCN1C(=O)Cc1cccc2cccnc12` [Example 190, 1-{(R)-4-[4-(1H-Benzoimidazol-2-yl)-2-trifluoromethyl-thiazol-5-yl]-2-methyl-piperazin-1-yl}-2-quinolin-8-yl-ethanone], the pIC50 was 9.00 at human CXCR3A and 6.29 on CXCR3.

As to `Cc1cnn(CC(=O)N2CCN(c3sc(C(F)(F)F)nc3-c3nc4ccccc4[nH]3)C[C@H]2C)c1` [Example 191, 1-{(R)-4-[4-(1H-Benzoimidazol-2-yl)-2-trifluoromethyl-thiazol-5-yl]-2-methyl-piperazin-1-yl}-2-(4-methyl-pyrazol-1-yl)-ethanone], the pIC50 at human CXCR3A was 9.00; on CXCR3, 6.33.

For `Cc1cc(C)n(CC(=O)N2CCN(c3sc(C(F)(F)F)nc3-c3nc4ccccc4[nH]3)C[C@H]2C)n1` [Example 192, 1-{(R)-4-[4-(1H-Benzoimidazol-2-yl)-2-trifluoromethyl-thiazol-5-yl]-2-methyl-piperazin-1-yl}-2-(3,5-dimethyl-pyrazol-1-yl)-ethanone], the pIC50 was 9.00 on human CXCR3A and 6.94 on CXCR3.

Regarding `C[C@@H]1CN(c2sc(C(F)(F)F)nc2-c2nc3ccccc3[nH]2)CCN1C(=O)Cn1ccc(C(F)(F)F)n1` [Example 193, 1-{(R)-4-[4-(1H-Benzoimidazol-2-yl)-2-trifluoromethyl-thiazol-5-yl]-2-methyl-piperazin-1-yl}-2-(3-trifluoromethyl-pyrazol-1-yl)-ethanone], the pIC50 on human CXCR3A is 9.00; at CXCR3, 6.68.

On to `C[C@@H]1CN(c2sc(C(F)(F)F)nc2-c2nc3ccccc3[nH]2)CCN1C(=O)Cn1cncn1` [Example 194, 1-{(R)-4-[4-(1H-Benzoimidazol-2-yl)-2-trifluoromethyl-thiazol-5-yl]-2-methyl-piperazin-1-yl}-2-[1,2,4]triazol-1-yl-ethanone], for which the pIC50 is 8.10 on human CXCR3A and 5.85 on CXCR3.

Regarding `Cc1nnc(CC(=O)N2CCN(c3sc(C(F)(F)F)nc3-c3nc4ccccc4[nH]3)C[C@H]2C)o1` [Example 195, 1-{(R)-4-[4-(1H-Benzoimidazol-2-yl)-2-trifluoromethyl-thiazol-5-yl]-2-methyl-piperazin-1-yl}-2-(5-methyl-[1,3,4]oxadiazol-2-yl)-ethanone], the pIC50 on human CXCR3A was 8.10; at CXCR3, 5.57.

As for `C[C@@H]1CN(c2sc(C(F)(F)F)nc2-c2nc3ccccc3[nH]2)CCN1C(=O)Cc1nnc(-c2ccccc2)o1` [Example 196, 1-{(R)-4-[4-(1H-Benzoimidazol-2-yl)-2-trifluoromethyl-thiazol-5-yl]-2-methyl-piperazin-1-yl}-2-(5-phenyl-[1,3,4]oxadiazol-2-yl)-ethanone], the pIC50 at human CXCR3A was 8.22; at CXCR3, 5.18.

On to `C[C@@H]1CN(c2sc(C(F)(F)F)nc2-c2nc3ccccc3[nH]2)CCN1C(=O)Cn1nccn1` [Example 197, 1-{(R)-4-[4-(1H-Benzoimidazol-2-yl)-2-trifluoromethyl-thiazol-5-yl]-2-methyl-piperazin-1-yl}-2-[1,2,3]triazol-2-yl-ethanone], for which the pIC50 was 8.10 at human CXCR3A and 5.27 on CXCR3.

For the molecule `COC(=O)c1ccn(CC(=O)N2CCN(c3sc(C(F)(F)F)nc3-c3nc4ccccc4[nH]3)C[C@H]2C)n1` [Example 198, 1-(2-{(R)-4-[4-(1H-Benzoimidazol-2-yl)-2-trifluoromethyl-thiazol-5-yl]-2-methyl-piperazin-1-yl}-2-oxo-ethyl)-1H-pyrazole-3-carboxylic acid methyl ester], the pIC50 was 8.70 on human CXCR3A and 5.16 at CXCR3.

For `Cc1ccc(CC(=O)N2CCN(c3sc(C(F)(F)F)nc3-c3nc4ccccc4[nH]3)C[C@H]2C)cn1` [Example 199, 1-{(R)-4-[4-(1H-Benzoimidazol-2-yl)-2-trifluoromethyl-thiazol-5-yl]-2-methyl-piperazin-1-yl}-2-(6-methyl-pyridin-3-yl)-ethanone], the pIC50 at human CXCR3A is 9.40; at CXCR3, 6.18.

In the case of `C[C@@H]1CN(c2sc(C(F)(F)F)nc2-c2nc3ccccc3[nH]2)CCN1C(=O)Cc1ccccc1-n1nccn1` [Example 200, 1-{(R)-4-[4-(1H-Benzoimidazol-2-yl)-2-trifluoromethyl-thiazol-5-yl]-2-methyl-piperazin-1-yl}-2-(2-[1,2,3]triazol-2-yl-phenyl)-ethanone], the values for the pIC50 at human CXCR3A and on CXCR3 were 7.55 and 6.20, respectively.

For `C[C@@H]1CN(c2sc(C(F)(F)F)nc2-c2nc3ccccc3[nH]2)CCN1C(=O)Cc1cccc(-n2nccn2)c1` [Example 201, 1-{(R)-4-[4-(1H-Benzoimidazol-2-yl)-2-trifluoromethyl-thiazol-5-yl]-2-methyl-piperazin-1-yl}-2-(3-[1,2,3]triazol-2-yl-phenyl)-ethanone], the negative logarithm of the IC50 (pIC50) was 8.70 at human CXCR3A and 5.54 on CXCR3.

Take `C[C@@H]1CN(c2sc(C(F)(F)F)nc2-c2nc3ccccc3[nH]2)CCN1C(=O)Cn1cc2cccnc2n1` [Example 202, 1-{(R)-4-[4-(1H-Benzoimidazol-2-yl)-2-trifluoromethyl-thiazol-5-yl]-2-methyl-piperazin-1-yl}-2-pyrazolo[3,4-b]pyridin-2-yl-ethanone]: the negative-log IC50 (pIC50) at human CXCR3A was 9.00; at CXCR3, 7.36.

Regarding `C[C@@H]1CN(c2sc(C(F)(F)F)nc2-c2nc3ccccc3[nH]2)CCN1C(=O)Cc1ccccc1-n1cccn1` [Example 203, 1-{(R)-4-[4-(1H-Benzoimidazol-2-yl)-2-trifluoromethyl-thiazol-5-yl]-2-methyl-piperazin-1-yl}-2-(2-pyrazol-1-yl-phenyl)-ethanone], the pIC50 is 8.30 at human CXCR3A and 5.68 on CXCR3.

Turning to `C[C@@H]1CN(c2sc(C(F)(F)F)nc2-c2nc3ccccc3[nH]2)CCN1C(=O)Cn1nccc1-c1ccccc1` [Example 204, 1-{(R)-4-[4-(1H-Benzoimidazol-2-yl)-2-trifluoromethyl-thiazol-5-yl]-2-methyl-piperazin-1-yl}-2-(5-phenyl-pyrazol-1-yl)-ethanone], the negative-log IC50 (pIC50) is 8.22 on human CXCR3A and 5.38 at CXCR3.

`C[C@@H]1CN(c2sc(C(F)(F)F)nc2-c2nc3ccccc3[nH]2)CCN1C(=O)CN1C(=O)C(F)(F)c2ccccc21` [Example 205, 1-(2-{(R)-4-[4-(1H-Benzoimidazol-2-yl)-2-trifluoromethyl-thiazol-5-yl]-2-methyl-piperazin-1-yl}-2-oxo-ethyl)-3,3-difluoro-1,3-dihydro-indol-2-one]: the pIC50 is 8.70 on human CXCR3A and 6.95 at CXCR3.

As for `C[C@@H]1CN(c2sc(C(F)(F)F)nc2-c2nc3ccccc3[nH]2)CCN1C(=O)Cn1cnc2cnccc21` [Example 206, 1-{(R)-4-[4-(1H-Benzoimidazol-2-yl)-2-trifluoromethyl-thiazol-5-yl]-2-methyl-piperazin-1-yl}-2-imidazo[4,5-c]pyridin-1-yl-ethanone], the figures for the pIC50 at human CXCR3A and at CXCR3 were 8.70 and 6.59, respectively.

In the case of `C[C@@H]1CN(c2sc(C(F)(F)F)nc2-c2nc3ccccc3[nH]2)CCN1C(=O)Cn1cnc(Br)n1` [Example 207, 1-{(R)-4-[4-(1H-Benzoimidazol-2-yl)-2-trifluoromethyl-thiazol-5-yl]-2-methyl-piperazin-1-yl}-2-(3-bromo-[1,2,4]triazol-1-yl)-ethanone], the pIC50 is 9.00 on human CXCR3A and 6.48 on CXCR3.

On to `C[C@@H]1CN(c2sc(C(F)(F)F)nc2-c2nc3ccccc3[nH]2)CCN1C(=O)Cc1ccccc1N1CCN(C)CC1` [Example 208, 1-{(R)-4-[4-(1H-Benzoimidazol-2-yl)-2-trifluoromethyl-thiazol-5-yl]-2-methyl-piperazin-1-yl}-2-[2-(4-methyl-piperazin-1-yl)-phenyl]-ethanone], for which the negative logarithm of the IC50 (pIC50) on human CXCR3A is 9.00; on CXCR3, 6.51.

The term pIC50 denotes the IC50 on a negative log10 scale, so that one unit is a factor of ten.
